From patent US20230065953A1, “NOVEL HETEROARYL-TRIAZOLE COMPOUNDS AS PESTICIDES” (Bayer Aktiengesellschaft, priority 2019, published 2023)

What was measured:
Assay type in all cases: in vivo
[1] = system: larvae of the southern green stink bug (Nezara viridula); experiment: Nezara viridula spray test; conditions: in Hordeum vulgare, 96 h
How it was run: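 Mortality (%) of stink bug larvae on treated barley (Hordeum vulgare) was scored 4 days after infestation. Test solutions came from an acetone/DMF concentrate diluted with water containing 1000 ppm emulsifier and were sprayed onto plants before larvae were added.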

[2] = system: Rhipicephalus microplus larvae (strain Parkhurst, resistant against synthetic pyrethroids); experiment: Rhipicephalus (Boophilus) microplus in-vitro contact test, larval cattle tick; conditions: 5 μg/cm^2 (=500 g/ha), after 48 hours, read-out: efficacy (larvae dead or moribund)
How it was run: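 Larvae exposed by contact to a dried acetone film on glass; a 900 ppm solution yields 5 μg/cm^2. Scoring after 48 h at 27° C. counts dead plus moribund larvae as efficacy.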

[3] = system: green peach aphid (Myzus persicae); experiment: Myzus persicae spray test; conditions: foliar, 120 h, Chinese cabbage leaf disks, after 5 days
How it was run: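 Percent mortality read 5 days after spraying, where 100% is total kill and 0% none. The spray contained compound in acetone plus dimethylformamide, diluted with 1000 ppm emulsifier water. It was applied to Brassica pekinensis leaf disks carrying mixed-instar green peach aphids.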

[4] = system: larvae of the banded cucumber beetle (Diabrotica balteata); experiment: Diabrotica balteata spray test; conditions: 168 h, 100 g/ha (=32 μg/well), wheat seeds, after 7 days, read-out: efficacy (seedling growth)
How it was run: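 Efficacy in % was read 7 days after infesting with 10-20 larvae per unit. Before infestation, 1-day-germinated wheat seedlings (5 per well) were sprayed with the active ingredient, formulated in acetone and dimethylformamide plus emulsifier and diluted with water containing emulsifier.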

[5] = system: fall armyworm larvae (Spodoptera frugiperda); experiment: Spodoptera frugiperda spray test (maize leaf sections); conditions: 168 h
How it was run: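 Percent kill of Spodoptera frugiperda caterpillars read at day 7. Larvae placed on dried Zea mays leaf pieces previously sprayed with test preparation, made from acetone plus DMF and diluted with emulsifier-containing water (1000 ppm).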

[6] = system: adult mosquitoes Aedes aegypti strain MONHEIM; experiment: Aedes aegypti test (AEDSAE surface treatment & contact assay); conditions: 24 hours after contact, read-out: efficacy (mortality); for mortality at 20 mg/m2: surface concentration 20 mg/m^2, 30 min exposure
How it was run: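 Test compound in acetone (2 mg/ml) with 2000 ppm rapeseed oil methyl ester was dried onto a glazed tile. Adult Aedes aegypti MONHEIM were exposed to the treated surface for 30 minutes. Percent mortality was scored 24 hours after contact.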

[7] = system: adult cat fleas (Ctenocephalides felis); experiment: Ctenocephalides felis in-vitro contact test, adult cat flea; conditions: 5 μg/cm^2 (=500 g/ha), after 48 hours
How it was run: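 After 48 h of room-temperature exposure in tubes whose walls carried dried compound residue (5 μg/cm^2, from 900 ppm acetone solution), adult cat fleas (5-10 per tube) were heat-challenged at 45-50° C up to 5 min. Fleas unable to climb away were counted dead or moribund, expressed as % efficacy.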

[8] = system: brown planthopper (Nilaparvata lugens); experiment: Nilaparvata lugens spray test; conditions: 96 h, 500 g/ha, rice plants, after 4 days
Procedure: Nilaparvata lugens—Spray Test • Solvent: 78.0 parts by weight of acetone • 1.5 parts by weight of dimethylformamide • Emulsifier: alkylarylpolyglycol ether
To produce a suitable preparation of active compound, 1 part by weight of active compound is mixed with the stated amount of solvents and is diluted with water, containing an emulsifier concentration of 1000 ppm, to the desired concentration. Further test concentrations are prepared by dilution with emulsifier containing water.
Rice plants (Oryza sativa) are sprayed with a preparation of the active ingredient of the desired concentration and the plants are infested with the brown planthopper (Nilaparvata lugens).
After 4 days mortality in % is determined. 100% means all planthoppers have been killed and 0% means none of the planthoppers have been killed.

[9] = system: adult flies Musca domestica strain WHO-N; experiment: Musca domestica test (MUSCDO surface treatment & contact assay); conditions: 24 hours after contact, read-out: efficacy (mortality); for mortality at 20 mg/m2: surface concentration 20 mg/m^2, 30 min exposure; for mortality at 4 mg/m2: surface concentration 4 mg/m^2, 30 min exposure
How it was run: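 Percent kill read 24 h post-contact, after adult flies (strain WHO-N) spent 30 min on a glazed tile treated with test solution (acetone, 2 mg/ml, plus 2000 ppm rapeseed oil methyl ester) and dried.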

[10] = system: adult brown dog ticks (Rhipicephalus sanguineus); experiment: Rhipicephalus sanguineus in-vitro contact test with adult brown dog ticks; conditions: 5 μg/cm^2 (=500 g/ha), after 48 hours, read-out: efficacy (ticks dead or moribund)
Procedure: Rhipicephalus sanguineus—In-Vitro Contact Tests with Adult Brown Dog Ticks
9 mg compound is solved in 1 mL acetone and diluted with acetone to the desired concentration. 250 μL of the test solution is filled in 25 mL glass test tubes and homogeneously distributed on the inner walls by rotation and tilting on a shaking device (2 h at 30 rpm). With a compound concentration of 900 ppm, an inner surface of 44.7 cm^2 and a homogeneous distribution, a dose of 5 μg/cm^2 is achieved.
After the solvent has evaporated, each test tube is filled with 5-10 adult brown dog ticks (Rhipicephalus sanguineus), closed with a perforated lid and incubated in a lying position at room temperature and relative humidity. After 48 hours efficacy is determined. The ticks are patted on the ground of the tubes and are incubated on a heating plate at 45-50° C. for at most 5 minutes. Immotile or uncoordinated moving ticks, which are not able to escape the heat by climbing upwards, are marked as dead or moribund.
An efficacy of 100% means all ticks are dead or moribund; 0% means no ticks are dead or moribund.

[11] = system: adult mosquitoes Anopheles funestus strain FUMOZ-R; experiment: Anopheles funestus test (ANPHFU surface treatment & contact assay); conditions: 24 hours after contact, read-out: efficacy (mortality); for mortality at 20 mg/m2: surface concentration 20 mg/m^2, 30 min exposure
Procedure: Anopheles funestus Test (ANPHFU Surface Treatment & Contact Assay) • Solvent: Aceton+2000 ppm rapeseed oil methyl ester (RME)
In order to produce a sufficient, active ingredient containing solution it is necessary to solve the test compound in the solvent-mix (acetone at 2 mg/ml/RME 2000 ppm). This solution is pipetted onto a glazed tile and after evaporation of the acetone, adult mosquitoes of the species Anopheles funestus strain FUMOZ-R (Hunt et al., Med. Vet. Entomol. 2005 September; 19(3): 271-275) are placed onto the dried surface. The exposure time is 30 minutes.
Mortality in percent (%) is determined 24 hours after contact of the insects to the treated surface. 100% mortality means that all tested insects are dead, whereas 0% means that no insect died.

[12] = surface concentration 4 mg/m^2, 30 min exposure

SMILES | mortality at 500 g/ha [1] [%] | pest or weed control at 5 µg/cm2 [2] [%] | mortality at 100 g/ha [3] [%] | pest or weed control at 32 µg/disc, 100 g/ha [4] [%] | mortality at 100 g/ha [5] [%] | mortality at 20 mg/m2 [6] [%] | efficacy (fleas dead or moribund) [7] [%] | mortality at 500 g/ha [8] [%] | mortality at 20 mg/m2 [9] [%] | pest or weed control at 5 µg/cm2, 500 g/ha [10] [%] | mortality at 4 mg/m2 [9] [%] | mortality at 100 g/ha [1] [%] | mortality at 4 mg/m2 [11, 12] [%] | mortality at 20 mg/m2 [11] [%] | mortality at 4 mg/m2 [6, 12] [%]
C[C@H](NC(=O)c1cc(OC(F)(F)F)cc(C2CC2)c1)c1ncnn1-c1ncc(C(=O)N(C)C)s1 [I-89] | 100 | 100 | 100 | 100 | 100 | 80 to 100 | 100 | 100 | 80 to 100 | 80 |  |  |  |  | 
Cc1nc([C@H](C)NC(=O)c2cc(OC(F)(F)F)cc(C3CC3)c2)n(-c2ncc(C#N)s2)n1 [I-91] | 100 | 100 | 90 | 100 | 100 | 80 to 100 |  | 100 | 80 to 100 | 100 | 90 to 100 |  |  |  | 
CNC(=O)c1cnc(-n2nc(C)nc2[C@H](C)NC(=O)c2cc(C(F)(F)F)cc(C(F)(F)F)c2)s1 [I-102] | 100 | 100 | 90 | 100 | 100 |  | 100 | 100 |  |  |  |  |  |  | 
C[C@H](NC(=O)c1cc(Br)cc(OC(F)(F)F)c1)c1ncnn1-c1ncc(C(=O)N(C)C)s1 [I-118] | 100 |  |  | 100 | 100 | 80 to 100 |  |  | 80 to 100 |  |  | 100 | 80 to 100 | 80 to 100 | 
Cc1nc([C@H](C)NC(=O)c2cc(OC(F)(F)F)cc(C3CC3)c2)n(-c2ncc(C(=O)N(C)CC3CC3)s2)n1 [I-128] | 100 |  | 90 | 100 | 100 |  |  | 100 |  |  |  | 90 |  |  | 
C[C@H](NC(=O)c1cc(OC(F)F)cc(SC(F)F)c1)c1ncnn1-c1ncc(C#N)s1 [I-130] | 100 |  | 90 | 100 | 100 | 80 to 100 |  |  | 80 to 100 |  | 90 to 100 |  |  | 80 to 100 | 
C[C@H](NC(=O)c1cc(OC(F)(F)F)cc(C2(C#N)CC2)c1)c1ncnn1-c1ncc(C#N)s1 [I-142] | 100 |  | 90 | 100 | 100 | 80 to 100 |  |  | 80 to 100 |  | 90 to 100 |  |  | 80 to 100 | 80 to 100
